According to patent US5430058A, “Pharmaceutical compositions comprising hydroxamate derivatives for iron removal” (Yeda Research and Development Co. Ltd., priority 1993, dated 1995):
Entries after “also recorded” stand apart in the source; their conditions may differ.

What was measured:
[1] = test system: trophozoite cultures of P. falciparum; test: Neutralization of drug induced inhibition by addition of iron(III); assay type: cell-based, Plasmodium falciparum; conditions: stoichiometric addition of iron(III) salt / applied as iron(III)-complexes
Method: i. Neutralization of drug induced inhibition by addition of iron (III). Preformed ferric iron-carrier complexes were prepared by addition of increasing amounts of FeCl3 (in methanol) to a DMSO solution containing the indicated concentration of chelator. The mixtures were incubated for 1 hour at room temperature and added to microculture wells at the trophozoite stage at final concentrations of 30 μg/ml (for desferrioxamine) and 5 μg/ml (for reversed siderophores).
In order to assess this point, it was examined whether the reversed siderophores cause growth inhibition by virtue of iron deprivation (extraction at the level of the infected cell), as compared to formation of toxic iron complexes, the effect of chelator on trophozoite cultures was examined in the presence of increasing amounts of ferric salt. […] The concentration of drug used was the IC50 value depicted in Table 1. […] The complexes were evidently non-toxic to parasites, thus ruling out chelated iron-mediated lipid peroxidation as the modus of operandii of the drugs, a mechanism of antimalarial activity that has been proposed for other iron chelators. […]

[2] = test system: normal and infected red cells; test: Distribution of 59Fe counts after uptake (80,000g lysate fractionation); assay type: cell-based, human; conditions: 59Fe complex, lysates 80,000g×20 min
Method: (§1) k. Uptake of radioactive carrier-Fe complexes. DFO and the different SF derivatives were pre-complexed with iron by addition of concentrated stock solutions of 20 mg/ml carriers to ^59 FeCl3 (Amersham, England) in 0.5 ml of 150 mM NaCl, 10 mM Hepes at 3-5 molar excess of carrier for 1 hour at room temperature. To begin the flux, normal or parasitized red cells that had been washed 3 times in saline buffer and resuspended in the same buffer supplemented with 5% bovine serum albumin (BSA), 2.5 mM citrate, 2 mg/ml glucose were added to radioactive ^59 Fe-complexes at a final suspension of 20% hematocrit. After incubation at 37° C., 75 μl suspension was removed in duplicate aliquots for each time point, placed in plastic 15 ml test tube (Starstedt) and centrifuged 1 minute at 2,500 g. The supernatant was removed and the pellet immediately placed on ice. After all sampling was completed the pellets were washed twice in 15 ml of ice cold buffer containing 50 mM EDTA and lysed in distilled water. Radioactivity (Gamma emission, 700-1300 Kev) was counted and the cell number for each sample determined from hemoglobin absorption of the lysate at 410 nm.
Due to the fact that RSF's have markedly greater lipophilicity than DFO, they were expected to faster penetrate and therefore more effectively chelate intracellular iron after short exposure times. […]

transferrin = test: Effect on iron in transferrin; conditions: after the same time of exposure
infected red cells = test: Extraction of chelatable iron, infected red cells (IRC); assay type: cell-based, human erythrocytes infected with P. falciparum; conditions: 12 μM
Method: l. Extraction of chelatable iron. Trophozoite stage parasites were obtained from step gradient of Percoll-3% L-alanine in phosphate buffered saline (10 mM Na-phosphate, 150 mM NaCl, pH 7.4). Cell suspensions of 100% parasitemia were adjusted to 1% hematocrit and placed in RPMI growth medium supplemented with 50 mM sucrose and 20 mM glucose. Pretreatment of cells was done with 12 μM of the indicated SF derivative or DMSO for 2 hours at 37° C. at which time the cells were washed twice in 500× volume of buffer containing 150 mM NaCl, 10 mM HEPES and 50 mM sucrose pH=7.4 Next the cells were incubated for additional 3 hours in 6.8 μM NBD-DFO and washed to remove fluorescent probe. Measurements of chelatable iron were carried out in the TCA soluble fraction of freeze thaw lysates as described by Lytton, S. D. et al., 1991 Mol. Pharmacol. 40:584-590.
Iron extractions were performed on cell suspensions treated (yes) or untreated (no) with 12 μM RSF n2-ileu for 2 hours at 37° C. Fluorescence assays of chelatable iron in non-infected (NRC) and in parasitized (IRC) red cells were carried out as described by Lytton et al., (1991) Mol. Pharmacol. 40:584.

[3] = test system: mammalian cells in culture; test: Growth/toxicity in mammalian cells in culture, general statement; assay type: cell-based
Method: The possibility that the reversed siderophores might affect mammalian cells in culture was assessed in conditions identical to those used for parasites in cultures. […] Nucleic acid synthesis was measured in cultures of mouse NIH 3T3 fibroblasts and human HT29 colonic carcinoma cells in the presence of either SF1-ileu (open circles), desferrioxamine (DFO) (solid triangle) in DMSO or DMSO alone (Control) (<1% final) (open triangles) at same concentrations. Cultures at confluence were exposed to chelators for 24 hours; the first 3 hours without radiolabel and 21 hours with 6 μCi/ml of [^3 H]-hypoxanthine. Extracellular hypoxanthine was removed by several washes with PBS and the cells were treated with 5% TCA for 15 minutes at 5° C. and solubilized with hot 2.5% SDS. Samples were taken for counting of radioactivity and measurement of protein (BCA, Pierce). Data are given as dpm/μg protein and SD (duplicate samples).

normal red cells = test: Uptake of 59Fe-carrier complexes into normal red cells; assay type: cell-based, human; conditions: iron(III) complex, normal red cells
Method: as §1
Due to the fact that RSF's have markedly greater lipophilicity than DFO, they were expected to faster penetrate and therefore more effectively chelate intracellular iron after short exposure times. Penetration of RSF's into normal and infected red cells was estimated by monitoring uptake of the RSF's-^59 Fe(III) complexes into infected and uninfected cells and compared to DFO. In order to confirm actual uptake of Fe-RSF ileun2 rather than adsorption to the outer membrane, cells were thoroughly washed and lysates were subjected to 80,000g×20 min centrifugation. More than 90% of the total counts were found in the cytosol fraction (results not shown).
FIGS. 8a and 8b show uptake of Fe^59 -carrier complexes into normal and infected red cells. Uptake of ^59 -Fe-RSF (FIG. 8a) and ^59 Fe-DFO (FIG. 8b) into normal (open symbols) and infected (closed symbols) red cells (60% parasitemia, >90% trophozoites). The carriers were pre-complexed to ^59 FeCl3 at 4:1 ration in DMSO with 5 μM external FeCl3 (from methanolic stock solutions). The radioactive complexes were then added to 20% hematocrit cell suspensions and flux was measured. Specific activity was 485000 cpm/nmole and 369000 cpm/nmole for the RSF and DFO uptake experiments, respectively. Cell number was determined from hemoglobin absorption of lysate at 410 nm.

SMILES | Effect of iron(III) on antimalarial activity [1] | Total counts found in the cytosol fraction [2] | Effect on iron in transferrin (transferrin) | Chelatable iron after RSF pretreatment (infected red cells; Experiment 1, IRC, 2 hours at 37° C (untreated 4.6)) [nmoles/10^10 cells] | Chelatable iron after RSF pretreatment (infected red cells; Experiment 2, IRC, 2 hours at 37° C (untreated 2.9)) [nmoles/10^10 cells] | Reduction of chelatable iron (infected red cells; pretreatment of trophozoites, 2 hours) | Growth of / toxicity to mammalian cells in culture [3] | Time to maximum uptake (normal red cells) [min] | Maximum uptake level (normal red cells; 5 μM external Fe) [nmoles/10^10 cells] | Uptake t1/2 (normal red cells; 5 μM external Fe) [min]
CC(=O)N(O)CCCCCNC(=O)CCC(=O)N(O)CCCCCNC(=O)CCC(=O)N(O)CCCCCN [DFO, desferrioxamine B, reference compound] | fully averted their antimalarial activity |  |  |  |  |  |  |  |  | 
CC[C@H](C)[C@H](NC(=O)CCOCC(CC)(COCCC(=O)N[C@H](C(=O)N(C)O)[C@@H](C)CC)COCCC(=O)N[C@H](C(=O)N(C)O)[C@@H](C)CC)C(=O)N(C)O [SF1-ileu] |  | More than 90% | not substantially affecting | 0.9 | 0.3 | 5-10 fold | does not affect the growth of various types of mammalian cells in culture; also recorded: not toxic to mammalian cells in culture | 10 to 15 | 4 | 2 to 3
